Test results as given in patent publication US6906095B2, “Indolylalkylidenehydrazine-carboximidamide derivatives as 5-hydroxytryptamine-6 ligands” (Wyeth, priority 2002, dated 2005).

target: T1, human cloned 5-HT6 receptors (Homo sapiens, UniProt P50406); experiment: 5-HT6 binding affinity, [3H]-LSD displacement in membranes of Hela cells; settings: not given
T1 construct: expressed in transfected cells; host or cells: Hela cells
T1 sequence (P50406 whole entry): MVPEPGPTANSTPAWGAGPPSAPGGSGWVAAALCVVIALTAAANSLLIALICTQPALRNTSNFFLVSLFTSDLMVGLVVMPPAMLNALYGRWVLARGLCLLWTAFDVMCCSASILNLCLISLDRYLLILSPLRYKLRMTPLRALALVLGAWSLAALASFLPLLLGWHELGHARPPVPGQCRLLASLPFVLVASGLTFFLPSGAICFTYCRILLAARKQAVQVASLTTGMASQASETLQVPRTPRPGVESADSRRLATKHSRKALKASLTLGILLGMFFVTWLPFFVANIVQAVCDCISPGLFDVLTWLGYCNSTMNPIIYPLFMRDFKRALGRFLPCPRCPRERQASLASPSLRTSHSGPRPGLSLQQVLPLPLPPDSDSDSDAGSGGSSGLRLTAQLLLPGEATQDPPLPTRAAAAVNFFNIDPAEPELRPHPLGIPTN

Row | SMILES | Ki
1 | CC(C)CC(=NNC(=N)N)c1cn(S(=O)(=O)c2ccccc2)c2ccccc12 [Example 7, 2-{3-methyl-1-[1-(phenylsulfonyl)-1H-indol-3-yl]butylidene}hydrazinecarboximidamide] | 12 nM
2 | CC(=NNC(=N)N)c1cn(S(=O)(=O)c2cccc(Br)c2)c2ccccc12 [Example 32, 2-(1-{1-[(3-bromophenyl)sulfonyl]-1H-indol-3-yl}ethylidene)hydrazinecarboximidamide] | 26 nM
3 | CC(=NNC(=N)N)c1cn(S(=O)(=O)c2ccc(Cl)s2)c2ccccc12 [Example 37, 2-(1-{1-[(5-chlorothien-2-yl)sulfonyl]-1H-indol-3-yl}ethylidene)hydrazinecarboximidamide] | 25 nM
4 | CCC(=NNC(=N)N)c1cn(S(=O)(=O)c2ccc(N)cc2)c2ccc(Cl)cc12 [Example 121, 2-(1-{1-[(4-aminophenyl)sulfonyl]-5-chloro-1H-indol-3-yl}propylidene)hydrazinecarboximidamide] | 9 nM
5 | CCC(=NNC(=N)N)c1cn(S(=O)(=O)c2ccc(N)cc2)c2ccc(F)cc12 [Example 119, 2-(1-{1-[(4-aminophenyl)sulfonyl]-5-fluoro-1H-indol-3-yl}propylidene)hydrazinecarboximidamide] | 2 nM
6 | CCCCCNC(=N)NN=C(C)c1cn(S(=O)(=O)c2ccccc2)c2ccccc12 [Example 123, N-Pentyl-2-{1-[1-(phenylsulfonyl)-1H-indol-3-yl]ethylidene}-hydrazinecarboximidamide] | 12 nM
7 | CC(=NNC(=N)N)c1cn(S(C)(=O)=O)c2cc(F)ccc12 [Example 100, 2-{1-[6-fluoro-1-(methylsulfonyl)-1H-indol-3-yl]ethylidene}hydrazinecarboximidamide] | 18 nM

same assay, conditions: test compound dose 10 nM; [3H]-LSD 3.0 nM

Row | SMILES | inhibition at 0.01 µM
8 | CC(=NNC(=N)N)c1cn(S(=O)(=O)c2ccccc2)c2ccc(C#N)cc12 [Example 16, 2-{1-[5-cyano-1-(phenylsulfonyl)-1H-indol-3-yl]ethylidene}hydrazinecarboximidamide] | 40.6%

same assay, conditions: test compound dose 100 nM; [3H]-LSD 3.0 nM

Row | SMILES | inhibition at 0.1 µM
9 | COc1ccc2c(c1)c(C=NNC(=N)N)cn2S(=O)(=O)c1ccccc1 [Example 20, 2-{[5-methoxy-1-(phenylsulfonyl)-1H-indol-3-yl]methylidene}hydrazinecarboximidamide] | 76.3%
10 | CC(=NNC(=N)NCCO)c1cn(S(=O)(=O)c2ccccc2)c2ccccc12 [Example 127, N-(2-hydroxyethyl)-2-{1-[1-(phenylsulfonyl)-1H-indol-3-yl]ethylidene}hydrazinecarboximidamide] | 83.3%
11 | CC(=NNC(=N)N)c1cn(S(=O)(=O)c2ccc([N+](=O)[O-])cc2)c2ccccc12 [Example 52, 2-(1-{1-[(4-nitrophenyl)sulfonyl]-1H-indol-3-yl}ethylidene)hydrazinecarboximidamide] | 28.2%
12 | N=C(N)NN=C(c1cn(S(=O)(=O)c2ccccc2)c2cc(F)ccc12)C1CC1 [Example 114, 2-{cyclopropyl[6-fluoro-1-(phenylsulfonyl)-1H-indol-3-yl]methylidene}hydrazinecarboximidamide] | 85.2%
13 | CC(=NNC(=N)N)c1cn(S(C)(=O)=O)c2ccccc12 [Example 55, 2-{1-[1-(methylsulfonyl)-1H-indol-3-yl]ethylidene}hydrazinecarboximidamide] | 68.2%
14 | CC(=NNC(=N)N)c1cn(S(=O)(=O)c2cccc(Br)c2)c2ccccc12 [Example 32, 2-(1-{1-[(3-bromophenyl)sulfonyl]-1H-indol-3-yl}ethylidene)hydrazinecarboximidamide] | 76.2%
15 | CC(=NNC(=N)N)c1cn(S(=O)(=O)c2ccc(Cl)s2)c2ccccc12 [Example 37, 2-(1-{1-[(5-chlorothien-2-yl)sulfonyl]-1H-indol-3-yl}ethylidene)hydrazinecarboximidamide] | 75.2%
16 | CC(=NNC(=N)N)c1cn(S(=O)(=O)c2ccccc2[N+](=O)[O-])c2ccccc12 [Example 51, 2-(1-{1-[(2-nitrophenyl)sulfonyl]-1H-indol-3-yl}ethylidene)hydrazinecarboximidamide] | 70.1%
17 | COc1ccc(S(=O)(=O)n2cc(C(=NNC(=N)N)C3CC3)c3cc(Cl)ccc32)cc1OC [Example 89, 2-[{5-chloro-1-[(3,4-dimethoxyphenyl)sulfonyl]-1H-indol-3-yl}(cyclopropyl)-methylidene]hydrazinecarboximidamide] | 71.9%
18 | CC(=NNC(=N)N)c1cn(S(=O)(=O)c2sc(Cl)cc2Br)c2ccccc12 [Example 29, 2-(1-{1-[(3-bromo-5-chlorothien-2-yl)sulfonyl]-1H-indol-3-yl}ethylidene)hydrazinecarboximidamide] | 60.3%
19 | CC(=NNC(=N)N)c1cn(S(=O)(=O)c2ccc(Br)cc2)c2ccccc12 [Example 30, 2-(1-{1-[(4-bromophenyl)sulfonyl]-1H-indol-3-yl}ethylidene)hydrazinecarboximidamide] | 65%
20 | CCCCCNC(=N)NN=C(C)c1cn(S(=O)(=O)c2ccccc2)c2ccccc12 [Example 123, N-Pentyl-2-{1-[1-(phenylsulfonyl)-1H-indol-3-yl]ethylidene}-hydrazinecarboximidamide] | 34%
21 | CSc1nccc(-c2ccc(S(=O)(=O)n3cc(C(C)=NNC(=N)N)c4ccccc43)s2)n1 [Example 49, 2-{1-[1-({5-[2-(methylthio)pyrimidin-4-yl]thien-2-yl}sulfonyl)-1H-indol-3-yl]ethylidene}-hydrazinecarboximidamide] | 33%
22 | CC(=NNC(=N)N)c1cn(S(C)(=O)=O)c2ccc(Cl)cc12 [Example 72, 2-{1-[5-chloro-1-(methylsulfonyl)-1H-indol-3-yl]ethylidene}hydrazinecarboximidamide] | 75.1%
23 | CC(=NNC(=N)N)c1cn(S(C)(=O)=O)c2cc(F)ccc12 [Example 100, 2-{1-[6-fluoro-1-(methylsulfonyl)-1H-indol-3-yl]ethylidene}hydrazinecarboximidamide] | 83.8%

same assay, conditions: test compound dose 1000 nM; [3H]-LSD 3.0 nM

Row | SMILES | % Inhibition
24 | Cc1ccc(S(=O)(=O)n2cc(C=NNC(=N)N)c3ccccc32)cc1 [Example 3, 2-({1-[(4-methylphenyl)sulfonyl]-1H-indol-3-l}methylidene)hydrazinecarboximidamide] | 71.0%

same assay, conditions: test compound dose 1000 nM; [3H]-LSD 3.0 nM; read-out: % Inhibition

Row | SMILES | inhibition at 1 µM
25 | CC(=NNC(=N)N)c1c(-c2ccc(F)c(Cl)c2)n(S(=O)(=O)c2ccccc2)c2ccccc12 [Example 12, 2-{1-[2-(3-chloro-4-fluorophenyl)-1-(phenylsulfonyl)-1H-indol-3-yl]ethylidene}hydrazinecarboximidamide] | 75.6%
26 | COc1ccc(S(=O)(=O)n2cc(C(C)=NNC(=N)N)c3ccc(F)cc32)cc1 [Example 106, 2-(1-{6-fluoro-1-[(4-methoxyphenyl)sulfonyl]-1H-indol-3-yl}ethylidene)hydrazinecarboximidamide] | 64.4%
27 | CC(C)CC(=NNC(=N)N)c1cn(S(=O)(=O)c2ccccc2)c2ccccc12 [Example 7, 2-{3-methyl-1-[1-(phenylsulfonyl)-1H-indol-3-yl]butylidene}hydrazinecarboximidamide] | 98.5%
28 | CC(=NNC(=N)N)c1cn(S(=O)(=O)c2ccc3ccccc3c2)c2cc(F)ccc12 [Example 109, 2-{1-[6-fluoro-1-(2-naphthylsulfonyl)-1H-indol-3-yl]ethylidene}hydrazinecarboximidamide] | 67.8%
29 | CC(=NNC(=N)N)c1cn(S(=O)(=O)c2ccccc2)c2cc(F)ccc12 [Example 112, 2-{1-[6-fluoro-1-(phenylsulfonyl)-1H-indol-3-yl]ethylidene}hydrazinecarboximidamide] | 94.6%
30 | CCCCC(=NNC(=N)N)c1cn(S(C)(=O)=O)c2ccccc12 [Example 56, 2-{1-[1-(methylsulfonyl)-1H-indol-3-yl]pentylidene}hydrazinecarboximidamide] | 76.9%
31 | COc1ccc(S(=O)(=O)n2cc(C(C)=NNC(=N)N)c3ccc(F)cc32)cc1OC [Example 115, 2-(1-{1-[(3,4-dimethoxyphenyl)sulfonyl]-6-fluoro-1H-indol-3-yl}ethylidene)hydrazinecarboximidamide] | 89.2%
32 | N=C(N)N/N=C(\C=C\c1ccccc1Cl)c1cn(S(=O)(=O)c2ccccc2)c2ccccc12 [Example 8, 2-{(E,2E)-3-(2-chlorophenyl)-1-[1-(phenylsulfonyl)-1H-indol-3-yl]prop-2-enylidene}-hydrazinecarboximidamide] | 95.2%
33 | CCCCC(=NNC(=N)N)c1cn(S(C)(=O)=O)c2ccc(Cl)cc12 [Example 73, 2-{1-[5-chloro-1-(methylsulfonyl)-1H-indol-3-yl]pentylidene}hydrazinecarboximidamide] | 71%
34 | CCCCC(=NNC(=N)N)c1c(-c2ccc(Cl)cc2)n(S(C)(=O)=O)c2ccccc12 [Example 91, 2-{1-[2-(4-chlorophenyl)-1-(methylsulfonyl)-1H-indol-3-yl]pentylidene}hydrazinecarboximidamide] | 9%
35 | CCCCC(=NNC(=N)N)c1c(-c2ccc(Cl)cc2)n(S(=O)(=O)c2ccccc2)c2ccccc12 [Example 96, 2-{1-[2-(4-chlorophenyl)-1-(phenylsulfonyl)-1H-indol-3-yl]pentylidene}hydrazinecarboximidamide] | 20%
36 | CCCCC(=NNC(=N)N)c1cn(S(=O)(=O)CCCC)c2cc(F)ccc12 [Example 104, 2-{1-[1-(butylsulfonyl)-6-fluoro-1H-indol-3-yl]pentylidene}hydrazinecarboximidamide] | 81.3%
